The record followed here is patent US5627177A, “Piperazine derivatives” (John Wyeth & Brother, Ltd., priority 1993, dated 1997).

SMILES strings stand for the structures.

Test [1] concerns the target T1, 5-HT1A receptor (Rattus norvegicus, UniProt P19327).
T1 sequence (P19327 1-422): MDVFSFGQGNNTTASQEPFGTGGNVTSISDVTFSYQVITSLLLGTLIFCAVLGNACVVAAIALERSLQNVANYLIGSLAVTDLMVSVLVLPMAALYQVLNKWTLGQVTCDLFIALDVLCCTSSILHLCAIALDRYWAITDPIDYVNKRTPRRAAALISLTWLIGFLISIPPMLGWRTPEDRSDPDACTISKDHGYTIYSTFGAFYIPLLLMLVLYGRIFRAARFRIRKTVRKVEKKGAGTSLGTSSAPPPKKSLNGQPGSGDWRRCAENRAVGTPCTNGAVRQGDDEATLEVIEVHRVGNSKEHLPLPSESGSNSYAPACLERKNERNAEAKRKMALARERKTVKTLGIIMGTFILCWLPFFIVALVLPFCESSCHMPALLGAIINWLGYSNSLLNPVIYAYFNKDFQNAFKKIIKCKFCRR
The experiment in a line: 5-HT1A receptor binding activity in rat hippocampal membrane homogenate. Set-up: from tissue. The procedure:
The compounds of the invention are tested for 5-HT1A receptor binding activity in rat hippocampal membrane homogenate by the method of B. S. Alexander and M. D. Wood, J Pharm Pharmacol, 1988, 40, 888-891.

Test [2] deals with T1, 5-HT1A receptor. The experiment in a line: 5-HT1A receptor antagonism: antagonism of 8-hydroxy-2-(di-n-propylamino)-tetralin (8-OH DPAT) syndrome in the rat. The test is classed as in vivo. Set-up: syndrome in the rat; from tissue; host or cells: whole living rat (in vivo). Conditions: sc, antagonism of 8-OH DPAT syndrome, read-out: median effective dose. The procedure:
The compounds are also tested for 5-HT1A receptor antagonism activity in a test involving the antagonism of 8-hydroxy-2-(di-n-propylamino)-tetralin (8-OH DPAT) syndrome in the rat.

Consider `COC(=O)c1cc2c(N3CCN(CCC(C(=O)N4CCCCCC4)c4ccccc4)CC3)cccc2[nH]1` (racemic) [Example 5, 4-[4-(4-Azepan-1-yl-4-oxo-3-phenylbutyl)piperazin-1-yl]-1H-indole-2-carboxylic acid methyl ester], for which the IC50 on 5-HT1A receptor [1] came to 0.72 nM. In addition, the ED50 at 5-HT1A receptor [2] is 0.3 mg/kg.

As usually defined, the IC50 is the concentration needed to halve the response being measured. Read a high IC50 as weaker potency.
